Test results reported in PubChem BioAssay AID286 (DTP/NCI, 2004).
Values joined by “and” are separate entries in the source; they are usually repeats but may differ in a detail not shown here. Equal values may be shown once. Inconclusive results and toxic doses are left out.

System: BDF1 mice, M5076 sarcoma ip, median survival T/C
Test: NCI In Vivo Anticancer Drug Screen. Data for tumor model Sarcoma M5076 (intraperitoneal) in B6D2F1 (BDF1) mice
Details: endpoint: median survival time, higher = longer survival
Protocol: The antitumor activity of compounds was measured in mice bearing transplantable tumors. Survival or tumor size were measured and the results are expressed as the measurement made in the treated group (T) divided by the measurement made in the vehicle treated control group (C). The tumor model used in this assay is Sarcoma M5076 (intraperitoneal) in B6D2F1 (BDF1) mice

[1] = dose: 100.0 mg/kg/injection, schedule: Q04DX004 (ip), vehicle: saline with Tween-80
[2] = dose: 200.0 mg/kg/injection, schedule: Q04DX004 (ip), vehicle: saline with Tween-80
[3] = dose: 400.0 mg/kg/injection, schedule: Q04DX004 (ip), vehicle: saline with Tween-80

## COc1cccc2c1C(=O)c1c(O)c3c(c(O)c1C2=O)C[C@@](O)(C(=O)CO)C[C@@H]3OC1CC(N)C(O)C(C)O1 (stereo not given in full)
dose: 0.5 mg/kg/injection, schedule: Q04DX005 (ip), vehicle: saline
  T/C: 196 % of control
dose: 0.75 mg/kg/injection, schedule: Q04DX005 (ip), vehicle: saline
  T/C: 204 % of control
dose: 1.0 mg/kg/injection, schedule: Q04DX005 (ip), vehicle: saline
  T/C: 197 % of control
dose: 1.5 mg/kg/injection, schedule: Q01DX007 (ip), vehicle: saline
  T/C: 171 % of control
dose: 1.5 mg/kg/injection, schedule: Q04DX005 (ip), vehicle: saline
  T/C: 277 % of control
dose: 2.0 mg/kg/injection, schedule: Q04DX004 (ip), vehicle: saline
  T/C: 160 % of control
dose: 2.0 mg/kg/injection, schedule: Q04DX005 (ip), vehicle: saline
  T/C: 401 % of control
dose: 2.1 mg/kg/injection, schedule: Q01DX007 (ip), vehicle: saline
  T/C: 176 % of control
dose: 3.0 mg/kg/injection, schedule: Q01DX007 (ip), vehicle: saline
  T/C: 216 % of control
dose: 3.0 mg/kg/injection, schedule: Q04DX005 (ip), vehicle: saline
  T/C: 308 % of control
dose: 3.4 mg/kg/injection, schedule: Q04DX003 (ip), vehicle: saline
  T/C: 152 % of control
dose: 4.0 mg/kg/injection, schedule: Q04DX004 (ip), vehicle: saline
  T/C: 190 % of control
dose: 4.0 mg/kg/injection, schedule: Q04DX005 (ip), vehicle: saline
  T/C: 208 % of control
dose: 5.0 mg/kg/injection, schedule: Q04DX003 (ip), vehicle: saline
  T/C: 176 % of control
dose: 6.0 mg/kg/injection, schedule: Q04DX005 (ip), vehicle: saline
  T/C: 308 % of control
dose: 7.0 mg/kg/injection, schedule: Q01DX001 (ip), vehicle: saline
  T/C: 159 % of control
dose: 7.5 mg/kg/injection, schedule: Q04DX003 (ip), vehicle: saline
  T/C: 120 % of control
dose: 8.0 mg/kg/injection, schedule: Q04DX004 (ip), vehicle: saline
  T/C: 190 % of control
dose: 10.0 mg/kg/injection, schedule: Q01DX001 (ip), vehicle: saline
  T/C: 159 % of control
dose: 15.0 mg/kg/injection, schedule: Q01DX001 (ip), vehicle: saline
  T/C: 185 % of control

## Nc1n[nH]c2ccccc12
dose: 50.0 mg/kg/injection, schedule: Q04DX004 (ip), vehicle: acid diluted with saline
  T/C: 112 % of control
dose: 100.0 mg/kg/injection, schedule: Q04DX004 (ip), vehicle: acid diluted with saline
  T/C: 113 % of control
dose: 200.0 mg/kg/injection, schedule: Q04DX004 (ip), vehicle: acid diluted with saline
  T/C: 112 % of control

## Cc1c2ccccc2c(C)c2c1cc(C(=O)O)c1ccccc12
dose: 25.0 mg/kg/injection, schedule: Q04DX004 (ip), vehicle: sodium bicarbonate
  T/C: 109 % of control
dose: 100.0 mg/kg/injection, schedule: Q04DX004 (ip), vehicle: sodium bicarbonate
  T/C: 110 % of control
dose: 200.0 mg/kg/injection, schedule: Q04DX004 (ip), vehicle: sodium bicarbonate
  T/C: 116 % of control
dose: 400.0 mg/kg/injection, schedule: Q04DX004 (ip), vehicle: sodium bicarbonate
  T/C: 110 % of control

## Cc1ccc2c(c1)n([O-])c1cc(Cl)ccc1[n+]2=O
dose: 25.0 mg/kg/injection, schedule: Q04DX004 (ip), vehicle: saline with Tween-80
  T/C: 109 % of control
dose: 50.0 mg/kg/injection, schedule: Q04DX004 (ip), vehicle: saline with Tween-80
  T/C: 112 % of control
[1]
  T/C: 110 % of control
[2]
  T/C: 110 % of control
[3]
  T/C: 115 % of control

## Nc1nncs1
[1]
  T/C: 113 % of control
dose: 100.0 mg/kg/injection, schedule: Q04DX004 (ip), vehicle: saline
  T/C: 112 % of control and 116 % of control and 121 % of control
dose: 100.0 mg/kg/injection, schedule: Q04DX005 (ip), vehicle: saline with Tween-80
  T/C: 112 % of control
dose: 100.0 mg/kg/injection, schedule: Q04DX005 (ip), vehicle: saline
  T/C: 119 % of control
[2]
  T/C: 116 % of control
dose: 200.0 mg/kg/injection, schedule: Q04DX004 (ip), vehicle: saline
  T/C: 112 % of control and 124 % of control
dose: 200.0 mg/kg/injection, schedule: Q04DX005 (ip), vehicle: saline with Tween-80
  T/C: 121 % of control
dose: 200.0 mg/kg/injection, schedule: Q04DX005 (ip), vehicle: saline
  T/C: 116 % of control and 124 % of control
[3]
  T/C: 119 % of control
dose: 400.0 mg/kg/injection, schedule: Q04DX004 (ip), vehicle: saline
  T/C: 110 % of control
dose: 400.0 mg/kg/injection, schedule: Q04DX005 (ip), vehicle: saline
  T/C: 109 % of control
dose: 800.0 mg/kg/injection, schedule: Q04DX004 (ip), vehicle: saline with Tween-80
  T/C: 124 % of control
dose: 800.0 mg/kg/injection, schedule: Q04DX004 (ip), vehicle: saline
  T/C: 106 % of control
dose: 800.0 mg/kg/injection, schedule: Q04DX005 (ip), vehicle: saline
  T/C: 151 % of control

## CC(=O)OCc1cc(=O)n(C)c2c3c4c(cc12)c(C)cc(=O)n4CO3
dose: 4.0 mg/kg/injection, schedule: Q01DX009 (ip), vehicle: Klucel (hydroxypropylcellulose) (HPC)
  T/C: 102 % of control
dose: 5.0 mg/kg/injection, schedule: Q04DX005 (ip), vehicle: Klucel (hydroxypropylcellulose) (HPC)
  T/C: 102 % of control
dose: 8.0 mg/kg/injection, schedule: Q01DX009 (ip), vehicle: Klucel (hydroxypropylcellulose) (HPC)
  T/C: 100 % of control
dose: 10.0 mg/kg/injection, schedule: Q04DX005 (ip), vehicle: Klucel (hydroxypropylcellulose) (HPC)
  T/C: 100 % of control
dose: 16.0 mg/kg/injection, schedule: Q01DX009 (ip), vehicle: Klucel (hydroxypropylcellulose) (HPC)
  T/C: 99 % of control
dose: 20.0 mg/kg/injection, schedule: Q01DX009 (ip), vehicle: Klucel (hydroxypropylcellulose) (HPC)
  T/C: 165 % of control
dose: 20.0 mg/kg/injection, schedule: Q04DX005 (ip), vehicle: Klucel (hydroxypropylcellulose) (HPC)
  T/C: 116 % of control and 118 % of control
dose: 32.0 mg/kg/injection, schedule: Q01DX009 (ip), vehicle: Klucel (hydroxypropylcellulose) (HPC)
  T/C: 99 % of control
dose: 40.0 mg/kg/injection, schedule: Q01DX009 (ip), vehicle: Klucel (hydroxypropylcellulose) (HPC)
  T/C: 179 % of control
dose: 40.0 mg/kg/injection, schedule: Q04DX005 (ip), vehicle: Klucel (hydroxypropylcellulose) (HPC)
  T/C: 102 % of control
dose: 64.0 mg/kg/injection, schedule: Q01DX009 (ip), vehicle: Klucel (hydroxypropylcellulose) (HPC)
  T/C: 103 % of control
dose: 80.0 mg/kg/injection, schedule: Q04DX005 (ip), vehicle: Klucel (hydroxypropylcellulose) (HPC)
  T/C: 92 % of control and 95 % of control

## CCN(CC)CCCNc1nccc2c(C)c3[nH]c4ccncc4c3cc12
dose: 0.63 mg/kg/injection, schedule: Q04DX004 (ip), vehicle: other
  T/C: 152 % of control
dose: 1.25 mg/kg/injection, schedule: Q04DX004 (ip), vehicle: other
  T/C: 191 % of control
dose: 2.5 mg/kg/injection, schedule: Q04DX004 (ip), vehicle: other
  T/C: 179 % of control
dose: 5.0 mg/kg/injection, schedule: Q04DX004 (ip), vehicle: other
  T/C: 260 % of control
dose: 10.0 mg/kg/injection, schedule: Q04DX004 (ip), vehicle: other
  T/C: 208 % of control

## O=P1(N(CCCl)CCCl)NCCCO1 (stereo not given)
dose: 10.0 mg/kg/injection, schedule: Q04DX005 (ip), vehicle: saline
  T/C: 180 % of control

## CCC(C)C(N)C(=O)NC(CC(N)=O)C(=O)NC(CC(C)C)C(=O)NC(CCCCN)C(=O)NC(C)C(=O)NC(CC(C)C)C(=O)NC(C)C(=O)NC(C)C(=O)NC(CC(C)C)C(=O)NC(C)C(=O)NC(CCCCN)C(=O)NC(CCCCN)C(=O)NC(C(=O)NC(CC(C)C)C(N)=O)C(C)CC (stereo not given)
dose: 1.56 mg/kg/injection, schedule: Q01DX009 (ip), vehicle: Klucel (hydroxypropylcellulose) (HPC)
  T/C: 95 % of control
dose: 3.12 mg/kg/injection, schedule: Q01DX009 (ip), vehicle: Klucel (hydroxypropylcellulose) (HPC)
  T/C: 101 % of control
dose: 6.25 mg/kg/injection, schedule: Q01DX009 (ip), vehicle: Klucel (hydroxypropylcellulose) (HPC)
  T/C: 96 % of control
dose: 12.5 mg/kg/injection, schedule: Q01DX009 (ip), vehicle: Klucel (hydroxypropylcellulose) (HPC)
  T/C: 98 % of control

## Cc1c2ccncc2c(C)c2c1[nH]c1ccccc12
dose: 40.0 mg/kg/injection, schedule: Q04DX004 (ip), vehicle: saline with Tween-80
  T/C: 170 % of control
dose: 80.0 mg/kg/injection, schedule: Q04DX004 (ip), vehicle: saline with Tween-80
  T/C: 191 % of control
